According to patent US20240115557A1, “INHIBITORS OF RNA-GUIDED NUCLEASES AND USES THEREOF” (The Brigham and Women's Hospital, Inc., priority 2022, published 2024):

Target: T1, SaCas9 (Staphylococcus aureus, UniProt J7RUA5)
T1 sequence (J7RUA5 1-1053): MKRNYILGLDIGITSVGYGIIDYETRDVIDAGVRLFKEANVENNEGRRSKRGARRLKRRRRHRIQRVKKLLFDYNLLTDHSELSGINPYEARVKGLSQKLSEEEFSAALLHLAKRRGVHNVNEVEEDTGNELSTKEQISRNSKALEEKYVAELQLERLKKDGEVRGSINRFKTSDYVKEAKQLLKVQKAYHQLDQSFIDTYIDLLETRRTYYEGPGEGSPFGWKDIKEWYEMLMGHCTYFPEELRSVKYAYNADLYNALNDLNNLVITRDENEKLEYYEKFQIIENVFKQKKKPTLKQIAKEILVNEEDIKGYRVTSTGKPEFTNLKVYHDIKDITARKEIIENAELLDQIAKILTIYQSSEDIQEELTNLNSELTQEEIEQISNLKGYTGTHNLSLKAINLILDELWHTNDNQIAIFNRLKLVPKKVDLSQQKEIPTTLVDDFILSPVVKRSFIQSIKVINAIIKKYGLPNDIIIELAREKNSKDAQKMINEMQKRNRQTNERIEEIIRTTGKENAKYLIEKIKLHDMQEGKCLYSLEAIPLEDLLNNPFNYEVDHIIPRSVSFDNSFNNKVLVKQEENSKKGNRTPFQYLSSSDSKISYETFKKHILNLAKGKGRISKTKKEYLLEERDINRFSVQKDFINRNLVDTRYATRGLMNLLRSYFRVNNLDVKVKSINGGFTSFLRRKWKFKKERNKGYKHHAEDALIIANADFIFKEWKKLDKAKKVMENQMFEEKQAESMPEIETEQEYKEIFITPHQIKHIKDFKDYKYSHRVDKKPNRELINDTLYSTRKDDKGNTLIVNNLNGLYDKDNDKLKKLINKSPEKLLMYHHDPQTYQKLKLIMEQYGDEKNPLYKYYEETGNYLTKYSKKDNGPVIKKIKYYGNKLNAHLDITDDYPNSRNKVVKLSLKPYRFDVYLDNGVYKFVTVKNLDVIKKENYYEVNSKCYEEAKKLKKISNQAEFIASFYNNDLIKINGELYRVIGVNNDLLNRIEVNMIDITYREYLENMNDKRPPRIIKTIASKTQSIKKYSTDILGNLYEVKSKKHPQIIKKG
Assay: Strand displacement assay, SaCas9 primary screen
Format: biochemical
Details: for Auto Zscore Rep 1 / Auto Zscore Rep 2 / Normalized Zscore Rep 1 / Normalized Zscore Rep 2: SaCas9 primary screen; for Auto Zscore Rep 1 / Normalized Zscore Rep 1: replicate 1; for Auto Zscore Rep 2 / Normalized Zscore Rep 2: replicate 2; for Normalized Zscore Rep 1 / Normalized Zscore Rep 2: weaker potential hits; for 3 sigma Hit: flag 1 = hit at 3 sigma; for 5 sigma Hit: flag 1 = hit at 5 sigma
Summary of the method: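 Cas9 RNP (1:1.2 protein:gRNA) pre-formed in 20 mM Tris-HCl pH 7.5, 100 mM KCl, 5 mM MgCl2, used at 10 nM (2× stock) with Alexa-Fluor 647 substrate/quencher at 1 nM/5 nM (2× stock). Reaction ran 2.5 h at 37°C; strand displacement read as fluorescence. Hits called by Z-score: 3–5σ weak, >5σ strong.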

Row | SMILES | Auto Zscore Rep 1 | Auto Zscore Rep 2 | Normalized Zscore Rep 1 | Normalized Zscore Rep 2 | 3 sigma Hit | 5 sigma Hit
1 | c1ccc(Cc2nn3c(-c4cccnc4)nnc3s2)cc1 [Compound D727-0066] | 0.2456 | 1.309 | 0.1917 | 0.2236 | 1 | 1
2 | Cc1nc2ccccc2n1Cc1nnc2n1N=C(N)CS2 [Compound D727-0339] | −1.123 | −1.939 | 0.1478 | 0.2051 | 1 | 
3 | Cc1ccccc1OCc1nn2c(C(C)C)nnc2s1 [Compound D727-0350] | −0.2032 | 0.9814 | 0.2025 | 0.2065 | 1 | 1
4 | Cc1ccccc1OCc1nn2c(C(C)(C)C)nnc2s1 [Compound D727-0351] | −0.02144 | −0.3042 | 0.2896 | 0.3227 | 1 | 1
5 | Brc1ccc(OCc2nn3c(-c4ccccn4)nnc3s2)cc1 [Compound D727-0522] | 1.021 | 0.5297 | 0.3471 | 0.3776 | 1 | 1
6 | Fc1ccc(OCc2nn3c(-c4ccccn4)nnc3s2)cc1 [Compound D727-0525] | 0.9393 | 1.066 | 0.3566 | 0.3426 | 1 | 1
7 | NC(=O)c1c(NC(=O)COCc2cc(-c3ccc4c(c3)OCO4)on2)sc2c1CCCC2 [Compound E613-0091] | −0.4678 | −1.998 | 0.1515 | 0.3604 | 1 | 
8 | NS(=O)(=O)c1ccc(CCNC(=O)C2=Cc3sc4c(c3CS2)CCCC4)cc1 [Compound E722-2588] | 0.2247 | −0.3407 | 0.2746 | 0.2871 | 1 | 1
9 | NC(=O)c1sc(=S)n2c1[nH]c(=O)c1ccc(Cl)cc12 [Compound F083-0067] | −0.5214 | 0.84 | 0.2245 | 0.2068 | 1 | 1
10 | CCCN1CCN(c2ccc(C(=O)O)cc2NC(=O)c2ccccc2Cl)CC1 [Compound F086-0004] | −1.483 | 1.076 | 0.2725 | 0.2108 | 1 | 1
11 | CC(C)NC(=O)CN1CCN(c2ccc(C(=O)O)cc2NC(=O)c2ccccc2Cl)CC1 [Compound F086-0028] | −0.07719 | 0.5847 | 0.2467 | 0.2295 | 1 | 1
12 | COCCCNC(=O)CN1CCN(c2ccc(C(=O)O)cc2NC(=O)c2ccccc2Cl)CC1 [Compound F086-0033] | −0.0657 | −0.1907 | 0.1937 | 0.2246 | 1 | 1
13 | O=C(O)c1ccc(N2CCN(c3ccccn3)CC2)c(NC(=O)c2ccc(Br)cc2)c1 [Compound F086-0619] | 1.213 | 0.1224 | 0.2335 | 0.1451 | 1 | 1
14 | Nc1c(C(=O)N2CCCC2)sc(=S)n1Cc1ccccc1 [Compound F128-0041] | 1.188 | −1.115 | 0.3576 | 0.3845 | 1 | 1
15 | Nc1c(C(=O)N2CCCCC2)sc(=S)n1Cc1ccccc1 [Compound F128-0042] | −0.3436 | 0.3038 | 0.2801 | 0.2612 | 1 | 1
16 | Nc1c(C(=O)NCC2CCCO2)sc(=S)n1-c1ccc(Cl)cc1 (centres unmarked) [Compound F128-0076] | −0.6285 | −1.451 | 0.3168 | 0.2064 | 1 | 1
17 | CS(=O)(=O)Nc1cnc(N2CCC(C(N)=O)(N3CCCCC3)CC2)c(C(=O)O)c1 [Compound F293-0183] | 1.533 | −0.4148 | 0.2879 | 0.3283 | 1 | 1
18 | O=C(O)c1cc(NS(=O)(=O)c2cc(F)ccc2F)cnc1N1CCC(N2CCCCC2)CC1 [Compound F293-0616] | −0.1879 | −0.1846 | 0.1887 | 0.1788 | 1 | 
19 | CS(=O)(=O)Nc1cnc(N2CCC(CCN3CCOCC3)CC2)c(C(=O)O)c1 [Compound F293-0898] | 0.3628 | 0.2374 | 0.3858 | 0.277 | 1 | 1
20 | CN(C)S(=O)(=O)Nc1cnc(N2CCC(CCN3CCCCC3)CC2)c(C(=O)O)c1 [Compound F293-0962] | −1.575 | −1.36 | 0.2533 | 0.277 | 1 | 1
21 | CCN(Cc1ccccc1)c1ccc(NS(=O)(=O)c2ccc(OC)cc2)cc1C(=O)O [Compound F294-0003] | 0.9297 | −1.427 | 0.2547 | 0.2729 | 1 | 1
22 | CN(C)S(=O)(=O)Nc1ccc(N2CCC(C(N)=O)(N3CCCCC3)CC2)c(C(=O)O)c1 [Compound F294-0183] | −1.66 | −0.5827 | 0.1624 | 0.2442 | 1 | 
23 | CN(C)S(=O)(=O)Nc1ccc(N2CCC(CCN3CCOCC3)CC2)c(C(=O)O)c1 [Compound F294-0900] | −2.121 | 0.2518 | 0.2307 | 0.229 | 1 | 1
24 | CN(C)S(=O)(=O)Nc1ccc(N2CCCC(CN3CCCC3)C2)c(C(=O)O)c1 (centres unmarked) [Compound F294-0983] | −0.3877 | −0.5875 | 0.2894 | 0.2577 | 1 | 1
